Measured values as given in PubChem BioAssay (NCI).
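Five compound concentrations were applied to cells in 96-well plates for 48 hours; endpoints were derived by simple linear interpolation of the resulting dose-response curve. TGI: concentration producing complete growth inhibition.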

What was measured:
Test in all cases: NCI-60 cell line screen, 48 h
786-0 renal = system: 786-0 renal
A498 renal = system: A498 renal
A549 NSCLC = system: A549 NSCLC
ACHN renal = system: ACHN renal
BT-549 breast = system: BT-549 breast
CAKI-1 renal = system: CAKI-1 renal
CCRF-CEM leukemia = system: CCRF-CEM leukemia
COLO 205 colon = system: COLO 205 colon
DU-145 prostate = system: DU-145 prostate
EKVX NSCLC = system: EKVX NSCLC
HCC-2998 colon = system: HCC-2998 colon
HCT-116 colon = system: HCT-116 colon
HCT-15 colon = system: HCT-15 colon
HL-60(TB) leukemia = system: HL-60(TB) leukemia
HOP-62 NSCLC = system: HOP-62 NSCLC
HOP-92 NSCLC = system: HOP-92 NSCLC
HT29 colon = system: HT29 colon
IGROV1 ovarian = system: IGROV1 ovarian
K-562 leukemia = system: K-562 leukemia
KM12 colon = system: KM12 colon
LOX IMVI melanoma = system: LOX IMVI melanoma
M14 melanoma = system: M14 melanoma
MCF7 breast = system: MCF7 breast
MDA-MB-231 breast = system: MDA-MB-231 breast
MDA-MB-435 = system: MDA-MB-435
MDA-N = system: MDA-N
MOLT-4 leukemia = system: MOLT-4 leukemia
NCI-H226 lung = system: NCI-H226 lung
NCI-H23 lung = system: NCI-H23 lung
NCI-H460 lung = system: NCI-H460 lung
NCI/ADR-RES ovarian = system: NCI/ADR-RES ovarian
OVCAR-3 ovarian = system: OVCAR-3 ovarian
OVCAR-4 ovarian = system: OVCAR-4 ovarian
OVCAR-5 ovarian = system: OVCAR-5 ovarian
OVCAR-8 ovarian = system: OVCAR-8 ovarian
PC-3 prostate = system: PC-3 prostate
RPMI-8226 leukemia = system: RPMI-8226 leukemia
RXF 393 renal = system: RXF 393 renal
SF-295 CNS = system: SF-295 CNS
SF-539 CNS = system: SF-539 CNS
SK-MEL-2 melanoma = system: SK-MEL-2 melanoma
SK-MEL-28 melanoma = system: SK-MEL-28 melanoma
SK-MEL-5 melanoma = system: SK-MEL-5 melanoma
SK-OV-3 ovarian = system: SK-OV-3 ovarian
SN12C renal = system: SN12C renal
SNB-19 CNS = system: SNB-19 CNS
SNB-75 CNS = system: SNB-75 CNS
SR leukemia = system: SR leukemia
SW-620 colon = system: SW-620 colon
T-47D breast = system: T-47D breast
TK-10 renal = system: TK-10 renal
U251 CNS = system: U251 CNS
UACC-257 melanoma = system: UACC-257 melanoma
UACC-62 melanoma = system: UACC-62 melanoma
UO-31 renal = system: UO-31 renal
HS 578T breast = system: HS 578T breast
MALME-3M melanoma = system: MALME-3M melanoma
NCI-H522 lung = system: NCI-H522 lung
SF-268 CNS = system: SF-268 CNS

SMILES: O=C(O)Cc1c[nH]c2ccc(F)cc12
- TGI (786-0 renal): > 100 µM
- TGI (A498 renal): > 100 µM
- TGI (A549 NSCLC): > 100 µM
- TGI (ACHN renal): > 100 µM
- TGI (BT-549 breast): > 100 µM
- TGI (CAKI-1 renal): > 100 µM
- TGI (CCRF-CEM leukemia): > 100 µM
- TGI (COLO 205 colon): > 100 µM
- TGI (DU-145 prostate): > 100 µM
- TGI (EKVX NSCLC): > 100 µM
- TGI (HCC-2998 colon): > 100 µM
- TGI (HCT-116 colon): > 100 µM
- TGI (HCT-15 colon): > 100 µM
- TGI (HL-60(TB) leukemia): > 100 µM
- TGI (HOP-62 NSCLC): > 100 µM
- TGI (HOP-92 NSCLC): > 100 µM
- TGI (HT29 colon): > 100 µM
- TGI (IGROV1 ovarian): > 100 µM
- TGI (K-562 leukemia): > 100 µM
- TGI (KM12 colon): > 100 µM
- TGI (LOX IMVI melanoma): > 100 µM
- TGI (M14 melanoma): > 100 µM
- TGI (MCF7 breast): > 100 µM
- TGI (MDA-MB-231 breast): > 100 µM
- TGI (MDA-MB-435): > 100 µM
- TGI (MDA-N): > 100 µM
- TGI (MOLT-4 leukemia): > 100 µM
- TGI (NCI-H226 lung): > 100 µM
- TGI (NCI-H23 lung): > 100 µM
- TGI (NCI-H460 lung): > 100 µM
- TGI (NCI/ADR-RES ovarian): > 100 µM
- TGI (OVCAR-3 ovarian): > 100 µM
- TGI (OVCAR-4 ovarian): > 100 µM
- TGI (OVCAR-5 ovarian): > 100 µM
- TGI (OVCAR-8 ovarian): > 100 µM
- TGI (PC-3 prostate): > 100 µM
- TGI (RPMI-8226 leukemia): > 100 µM
- TGI (RXF 393 renal): > 100 µM
- TGI (SF-295 CNS): > 100 µM
- TGI (SF-539 CNS): > 100 µM
- TGI (SK-MEL-2 melanoma): > 100 µM
- TGI (SK-MEL-28 melanoma): > 100 µM
- TGI (SK-MEL-5 melanoma): > 100 µM
- TGI (SK-OV-3 ovarian): > 100 µM
- TGI (SN12C renal): > 100 µM
- TGI (SNB-19 CNS): > 100 µM
- TGI (SNB-75 CNS): > 100 µM
- TGI (SR leukemia): > 100 µM
- TGI (SW-620 colon): > 100 µM
- TGI (T-47D breast): > 100 µM
- TGI (TK-10 renal): > 100 µM
- TGI (U251 CNS): > 100 µM
- TGI (UACC-257 melanoma): > 100 µM
- TGI (UACC-62 melanoma): > 100 µM
- TGI (UO-31 renal): > 100 µM

SMILES: CCOP(=O)(OCC)/C(F)=C/c1ccccc1
- TGI (786-0 renal): > 100 µM
- TGI (A498 renal): > 100 µM
- TGI (A549 NSCLC): > 100 µM
- TGI (ACHN renal): > 100 µM
- TGI (BT-549 breast): > 100 µM
- TGI (CAKI-1 renal): > 100 µM
- TGI (CCRF-CEM leukemia): > 100 µM
- TGI (COLO 205 colon): > 100 µM
- TGI (DU-145 prostate): > 100 µM
- TGI (EKVX NSCLC): > 100 µM
- TGI (HCC-2998 colon): > 100 µM
- TGI (HCT-116 colon): > 100 µM
- TGI (HCT-15 colon): > 100 µM
- TGI (HL-60(TB) leukemia): > 100 µM
- TGI (HOP-62 NSCLC): > 100 µM
- TGI (HOP-92 NSCLC): > 100 µM
- TGI (HS 578T breast): > 100 µM
- TGI (HT29 colon): > 100 µM
- TGI (IGROV1 ovarian): > 100 µM
- TGI (K-562 leukemia): > 100 µM
- TGI (KM12 colon): > 100 µM
- TGI (LOX IMVI melanoma): > 100 µM
- TGI (M14 melanoma): > 100 µM
- TGI (MALME-3M melanoma): > 100 µM
- TGI (MCF7 breast): > 100 µM
- TGI (MDA-MB-231 breast): > 100 µM
- TGI (MDA-MB-435): > 100 µM
- TGI (MDA-N): > 100 µM
- TGI (MOLT-4 leukemia): > 100 µM
- TGI (NCI-H23 lung): > 100 µM
- TGI (NCI-H460 lung): > 100 µM
- TGI (NCI-H522 lung): > 100 µM
- TGI (NCI/ADR-RES ovarian): > 100 µM
- TGI (OVCAR-3 ovarian): > 100 µM
- TGI (OVCAR-4 ovarian): > 100 µM
- TGI (OVCAR-5 ovarian): > 100 µM
- TGI (OVCAR-8 ovarian): > 100 µM
- TGI (PC-3 prostate): > 100 µM
- TGI (RPMI-8226 leukemia): > 100 µM
- TGI (RXF 393 renal): > 100 µM
- TGI (SF-268 CNS): > 100 µM
- TGI (SF-295 CNS): > 100 µM
- TGI (SF-539 CNS): > 100 µM
- TGI (SK-MEL-2 melanoma): > 100 µM
- TGI (SK-MEL-28 melanoma): > 100 µM
- TGI (SK-MEL-5 melanoma): > 100 µM
- TGI (SK-OV-3 ovarian): > 100 µM
- TGI (SN12C renal): > 100 µM
- TGI (SNB-19 CNS): > 100 µM
- TGI (SNB-75 CNS): > 100 µM
- TGI (SR leukemia): > 100 µM
- TGI (SW-620 colon): > 100 µM
- TGI (T-47D breast): > 100 µM
- TGI (TK-10 renal): > 100 µM
- TGI (U251 CNS): > 100 µM
- TGI (UACC-257 melanoma): > 100 µM
- TGI (UACC-62 melanoma): > 100 µM
- TGI (UO-31 renal): > 100 µM

SMILES: O=C1CC(c2ccc([N+](=O)[O-])cc2)C2(C(=O)NC(=S)NC2=O)C(c2ccc([N+](=O)[O-])cc2)C1 (centres undefined)
- TGI (786-0 renal): 87.7 µM
- TGI (A498 renal): 85 µM
- TGI (A549 NSCLC): 50.4 µM
- TGI (ACHN renal): 40.4 µM
- TGI (BT-549 breast): 34.1 µM
- TGI (CCRF-CEM leukemia): > 100 µM
- TGI (COLO 205 colon): > 100 µM
- TGI (DU-145 prostate): 83.3 µM
- TGI (EKVX NSCLC): 82.9 µM
- TGI (HCC-2998 colon): 49.8 µM
- TGI (HCT-116 colon): 32.4 µM
- TGI (HCT-15 colon): 58 µM
- TGI (HL-60(TB) leukemia): > 100 µM
- TGI (HOP-62 NSCLC): 56 µM
- TGI (HOP-92 NSCLC): > 100 µM
- TGI (HS 578T breast): 88.2 µM
- TGI (HT29 colon): > 100 µM
- TGI (IGROV1 ovarian): 45.2 µM
- TGI (K-562 leukemia): > 100 µM
- TGI (KM12 colon): 36.3 µM
- TGI (LOX IMVI melanoma): 39.4 µM
- TGI (M14 melanoma): 45.7 µM
- TGI (MALME-3M melanoma): 32.2 µM
- TGI (MCF7 breast): 43.8 µM
- TGI (MDA-MB-231 breast): 37.3 µM
- TGI (MDA-MB-435): 40.4 µM
- TGI (MDA-N): > 100 µM
- TGI (MOLT-4 leukemia): > 100 µM
- TGI (NCI-H226 lung): 36.9 µM
- TGI (NCI-H23 lung): 64.1 µM
- TGI (NCI-H460 lung): 42.2 µM
- TGI (NCI-H522 lung): 36.4 µM
- TGI (NCI/ADR-RES ovarian): > 100 µM
- TGI (OVCAR-3 ovarian): 76.1 µM
- TGI (OVCAR-4 ovarian): > 100 µM
- TGI (OVCAR-5 ovarian): 87.4 µM
- TGI (OVCAR-8 ovarian): 45.1 µM
- TGI (PC-3 prostate): > 100 µM
- TGI (RPMI-8226 leukemia): > 100 µM
- TGI (SF-268 CNS): 45.6 µM
- TGI (SF-295 CNS): 60.1 µM
- TGI (SF-539 CNS): > 100 µM
- TGI (SK-MEL-28 melanoma): > 100 µM
- TGI (SK-MEL-5 melanoma): 99.1 µM
- TGI (SK-OV-3 ovarian): > 100 µM
- TGI (SN12C renal): 53.4 µM
- TGI (SNB-19 CNS): 43.5 µM
- TGI (SNB-75 CNS): > 100 µM
- TGI (SR leukemia): > 100 µM
- TGI (SW-620 colon): > 100 µM
- TGI (T-47D breast): 96.3 µM
- TGI (TK-10 renal): 46.7 µM
- TGI (U251 CNS): 37 µM
- TGI (UACC-257 melanoma): 40.9 µM
- TGI (UACC-62 melanoma): 32.6 µM
- TGI (UO-31 renal): 63.1 µM
